Experimental data reported in ChEMBL document CHEMBL1127217, “Enantioselective acetylation of primary amines by Cylindrocarpon radicicola” (Bioorg Med Chem Lett, 1993).

How the values were obtained:
Ilyonectria destructans [1] = assay: N-Acylation of compound was determined after 22 hr incubation at 250 mg/mL concentration using Cylindrocarpon radicicola resting cells and residual amine was evaluated
Ilyonectria destructans [2] = assay: N-Acylation of amine was determined after 22 hr incubation at 250 mg/mL concentration using Cylindrocarpon radicicola resting cells to amide expressed as enantioselectivity coefficient (amine/amide): 52/48
Ilyonectria destructans [3] = assay: N-Acylation of amine was determined after 22 hr incubation at 250 mg/mL concentration using Cylindrocarpon radicicola resting cells to amide expressed as enantioselectivity coefficient (amine/amide): 65/35
Ilyonectria destructans [4] = assay: N-Acylation of amine was determined after 22 hr incubation at 250 mg/mL concentration using Cylindrocarpon radicicola resting cells to amide expressed as enantioselectivity coefficient (amine/amide): 59/41
Ilyonectria destructans [5] = assay: N-Acylation of amine was determined after 22 hr incubation at 250 mg/mL concentration using Cylindrocarpon radicicola resting cells to amide expressed as enantioselectivity coefficient (amine/amide): 48/52
Ilyonectria destructans [6] = assay: N-Acylation of amine was determined after 22 hr incubation at 250 mg/mL concentration using Cylindrocarpon radicicola resting cells to amide expressed as enantioselectivity coefficient (amine/amide): 53/47

SMILES | Residual amine (ee) (Ilyonectria destructans [1]) | further results
NC1CCc2ccccc21 (stereo not given) | 0% | Enantioselectivity coefficient (Ilyonectria destructans [2]): 52
CC(CN)c1ccccc1 (stereo not given) | 0% | Enantioselectivity coefficient (Ilyonectria destructans [3]): 65
NC(c1ccccc1)c1ccc(Cl)cc1 (stereo not given) | 0% | Enantioselectivity coefficient (Ilyonectria destructans [4]): 59
NC(Cc1ccccc1)c1ccccc1 (stereo not given) | 80% | Enantioselectivity coefficient (Ilyonectria destructans [5]): 48
CC(N)COc1ccccc1 (stereo not given) | 95% | Enantioselectivity coefficient (Ilyonectria destructans [6]): 53
